Patent US10828262B2, “Biomembrane, closed structure with biomembrane characteristics or cellular compartment derived from natural sources and/or self-assembly techniques, preparation method and applications thereof” (priority 2017, dated 2020)

Tests used:
[1] = In vivo half-life period of calcitonin after vein injection; parameters: species or system new zealand white rabbit; settings: rabbit, injection through vein
[2] = tested on: human hepatoma cell line BEL-7402; settings: BALB/C nude mouse
Text: (§1) • (1) Inoculate human hepatoma cell line BEL-7402 below back skin of BALB/C nude mouse.

[3] = Body weight of tumor model mice; format: in vivo, BALB/C nude mouse; settings: BEL-7402 model nude mice
Text: as §1

[4] = 0.2 ml intraperitoneal injection every day, after 10 d

Molecule | in vivo half-life period [1] [h] | Tumor After treatment [2, 4] [mm^3] | Tumor Before treatment ([2]; liver-implanted tumor) [mm^3] | Weight Before treatment [3] [g] | Weight After treatment [3, 4] [g]
calcitonin [ordinary calcitonin] | 2 | – | – | – | –
COc1cccc2c1C(=O)c1c(O)c3c(c(O)c1C2=O)C[C@@](O)(C(=O)CO)C[C@@H]3O[C@H]1C[C@H](N)[C@H](O)[C@H](C)O1 [Adriamycin amycin, adriamycin] | – | 50.17 | 42.93 | 20.03 | 20.1
